According to PMC5245739, “Nanoscale Electric Characteristics and Oriented Assembly of Halobacterium salinarum Membrane Revealed by Electric Force Microscopy” (Nanomaterials, 2016):
No end group written: not given here.

Legend:
[1] = molecular target: T1, purple membrane (PM) (Halobacterium salinarum, UniProt P02945); test: SPR binding of peptide to PM (KxV5-type SPR, Langmuir adsorption model); details: PM patches as mobile phase
T1 construct: The culture of Halobacterium halobium and PM isolation were carried out following a standard procedure; endogenous in cells; host or cells: Halobacterium halobium culture; purple membrane isolated by the standard procedure (Oesterhelt & Stoeckenius)
T1 sequence (P02945 14-261 limits assumed): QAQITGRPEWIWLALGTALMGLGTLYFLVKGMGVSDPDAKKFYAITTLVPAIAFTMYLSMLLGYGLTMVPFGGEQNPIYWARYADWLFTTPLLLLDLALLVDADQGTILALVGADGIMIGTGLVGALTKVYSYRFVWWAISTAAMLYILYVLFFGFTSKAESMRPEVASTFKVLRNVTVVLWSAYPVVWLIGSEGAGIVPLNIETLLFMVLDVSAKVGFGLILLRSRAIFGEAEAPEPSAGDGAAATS
Description: Binding affinity of peptide with PM was tested by using surface plasmon resonance (SPR), which can provide real-time monitoring of biomolecular interactions [46, 47]. The binding constant between PM and the peptide was calculated based on Langmuir adsorption, in which the following equation is applicable. (4) 1/R=1/(RmaxKACA)+1/Rmax Rmax is the maximum coverage, KA is the equilibrium adsorption constant, and CA is the concentration of adsorbate solution [48].
The culture of Halobacterium halobium and PM isolation were carried out following a standard procedure [49]. Purified PM was suspended in double-distilled water and stored at 4 °C. The buffer used in the experiments consisted of 10 mM Tris HCl with a pH value of 8.0.
The characterization of the peptides-PM binding interaction was accomplished with the surface plasmon resonance technique (KxV5-type SPR, Plexera, Woodinville, WA, USA). […] The peptides were introduced to the surface of the gold chip in advance as stationary phase. SPR chip was modified by thiol molecules containing carboxyl to form self-assembled layer. 5 mL of carboxyl thiols (dithiosole-COOH, 1 μM) and hydroxy-dithiol molecule (dithiosole-OH, 10 μM) mixing ethanol solution was dropped on a SPR chip surface, and then the remaining liquid was removed by suction after 15 min of adsorption. After rinsing with ethanol, the carboxyl-terminated SAM on the chip surface underwent EDC/NHS activation. PM patches were introduced as a mobile phase. Based on the Langmuir adsorption model, the kinetic parameters and the binding constant were calculated using Plexera software.

[2] = molecular target: T1, purple membrane (PM); test: Directional PM assembly on Peptide-3 modified silicon, AFM and surface potential; details: side attributed from surface potential; PM adsorbed on peptide modified silicon (EDC/NHS)
Description: The peptide was modified on silicon substrates via 1-ethyl-3-(3-(dimethylamino)propyl) carbodiimide (EDC)/N-hydroxysuccinimide(NHS) coupling for an oriented PM assembly. The silicon surface is treated with oxygen plasma first for hydroxyl group generation and then followed by (3-aminopropyl)triethoxysilane (APTES) modification for an amino-terminated surface. Then, introduction of succine anhydride leads to a carboxyl-terminated self-assembled monolayer (SAM) on the silicon surface, followed by EDC/NHS activation to immobilized peptides onto the silicon surface. […] This observation is consistent with the SPR measurements on the binding affinity of peptide with PM. The surface potential analyses of PM patches on silicon substrate are labeled by lines in EFM-potential images and their sectional analyses were done. […]
The topographic and surface potential images were obtained using a Bruker Dimension Icon microscope in a two-pass operation mode slightly different from the EFM measurement mentioned above. […] The deflection amplitude of the probe in lift mode was monitored, which was linearly proportional to the electrical force imposed on the probe. […]

GARGIMIGTGLVGALTDVYSYDF
kon ([1]; peptide immobilised on gold chip (carboxyl-terminated SAM, EDC/NHS), Plexera software, buffer used in the experiments 10 mM Tris HCl pH 8.0, read-out: adsorption rate constant ka): 283 M⁻¹ s⁻¹
koff ([1]; peptide immobilised on gold chip (carboxyl-terminated SAM, EDC/NHS), Plexera software, buffer used in the experiments 10 mM Tris HCl pH 8.0, read-out: dissociation rate constant kd): 0.00238 s⁻¹
Kd ([1]; peptide immobilised on gold chip, buffer used in the experiments 10 mM Tris HCl pH 8.0, unit inferred, read-out: equilibrium dissociation constant KD): 8.43 µM
orientation of PM on peptide-modified silicon [2]: identical orientation of the PM on surface
